Assay results from patent US6737383B1, “Herbicidal oxadiazolidines” (priority 1999, dated 2004).

Legend:
bedstraw = assay: Test B pre/postemergence bedstraw; type: in vivo, Galium aparine
Procedure, shortened: (§1)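 Response is a visual 0-to-10 score relative to untreated plants, where 0 means no effect and 10 means complete control, taken twelve to sixteen days after application. Treatments went onto soil at planting and onto foliage of 1- to 4-leaf plants, using a surfactant-containing non-phytotoxic solvent.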

cocklebur = assay: Test B pre/postemergence cocklebur; type: in vivo, Xanthium strumarium
Procedure, shortened: as §1

pigweed = assay: Test B pre/postemergence pigweed; type: in vivo, Amaranthus retroflexus
Procedure, shortened: as §1

blackgrass = assay: Test B pre/postemergence blackgrass; type: in vivo, Alopecurus myosuroides
Procedure, shortened: as §1

crabgrass = assay: Test B pre/postemergence crabgrass; type: in vivo, Digitaria sanguinalis
Procedure, shortened: as §1

surinam grass = assay: Test B pre/postemergence surinam grass; type: in vivo, Brachiaria decumbens
Procedure, shortened: as §1

wild oat = assay: Test B pre/postemergence wild oat; type: in vivo, Avena fatua
Procedure, shortened: as §1

soybean = assay: Test B pre/postemergence soybean; type: in vivo, Glycine max
Procedure, shortened: as §1

velvetleaf = assay: Test B pre/postemergence velvetleaf; type: in vivo, Abutilon theophrasti
Procedure, shortened: as §1

morningglory = assay: Test B pre/postemergence morningglory; type: in vivo, Ipomoea hederacea
Procedure, shortened: as §1

giant foxtail = assay: Test B pre/postemergence giant foxtail; type: in vivo, Setaria faberii
Procedure, shortened: as §1

rape = assay: Test B pre/postemergence rape; type: in vivo, Brassica napus
Procedure, shortened: as §1

wheat = assay: Test B pre/postemergence wheat; type: in vivo, Triticum aestivum
Procedure, shortened: as §1

sugar beet = assay: Test B pre/postemergence sugar beet; type: in vivo, Beta vulgaris
Procedure, shortened: as §1

corn = assay: Test B pre/postemergence corn; type: in vivo, Zea mays
Procedure, shortened: as §1

purple nutsedge = assay: Test B pre/postemergence purple nutsedge; type: in vivo, Cyperus rotundus
Procedure, shortened: as §1

[1] = Postemergence, Rate 125 g/ha, scale 0 to 10, 0 is no effect, 10 is complete control
[2] = Preemergence, Rate 62 g/ha, scale of 0 to 10 where 0 is no effect and 10 is complete control
[3] = Preemergence, Rate 250 g/ha, scale 0 to 10, 0 is no effect, 10 is complete control
[4] = Preemergence, Rate 500 g/ha, scale 0 to 10, 0 is no effect, 10 is complete control
[5] = Rate 62 g/ha, Postemergence, scale 0 to 10, 0 no effect, 10 complete control
[6] = Postemergence, Rate 250 g/ha, scale 0 to 10
[7] = Postemergence, Rate 500 g/ha, scale 0 to 10, 0 is no effect, 10 is complete control
[8] = Preemergence, Rate 125 g/ha, scale 0 to 10, 0 is no effect, 10 is complete control
[9] = Preemergence, Rate 500 g/ha, scale of 0 to 10 where 0 is no effect and 10 is complete control

CC(C)N(C(=O)n1oc(=O)n(CC2=CCCN(C)C2)c1=O)c1ccccc1 [Compound 497]
Bedstraw plant response rating (bedstraw; [1]): 0
Plant response rating, Bedstraw (bedstraw; [2]): 0
Bedstraw plant response rating (bedstraw; [3]): 0
Bedstraw plant response rating (bedstraw; [4]): 0
Bedstraw plant response rating (bedstraw; [5]): 0
Cocklebur plant response rating (cocklebur; [1]): 0
Cocklebur plant response rating (cocklebur; [6]): 0
Plant response rating, Cocklebur (cocklebur; [7]): 0
Plant response rating, Cocklebur (cocklebur; [2]): 0
Cocklebur plant response rating (cocklebur; [8]): 0
Cocklebur plant response rating (cocklebur; [3]): 0
Cocklebur plant response rating (cocklebur; [9]): 0
Cocklebur plant response rating (cocklebur; [5]): 0
Redroot pigweed plant response rating (pigweed; [1]): 0
Plant response rating, Redroot pigweed (pigweed; [7]): 0
Plant response rating, Redroot pigweed (pigweed; [2]): 0
Redroot pigweed plant response rating (pigweed; [8]): 0
Redroot pigweed plant response rating (pigweed; [9]): 0
Redroot pigweed plant response rating (pigweed; [5]): 0
Blackgrass plant response rating (blackgrass; [1]): 0
Blackgrass plant response rating (blackgrass; [6]): 0
Plant response rating, Blackgrass (blackgrass; [7]): 0
Plant response rating, Blackgrass (blackgrass; [2]): 0
Blackgrass plant response rating (blackgrass; [8]): 0
Blackgrass plant response rating (blackgrass; [3]): 0
Blackgrass plant response rating (blackgrass; [9]): 0
Blackgrass plant response rating (blackgrass; [5]): 0
Crabgrass plant response rating (crabgrass; [1]): 0
Crabgrass plant response rating (crabgrass; [6]): 0
Plant response rating, Crabgrass (crabgrass; [7]): 0
Plant response rating, Crabgrass (crabgrass; [2]): 0
Crabgrass plant response rating (crabgrass; [8]): 0
Crabgrass plant response rating (crabgrass; [9]): 0
Crabgrass plant response rating (crabgrass; [5]): 0
B. signalgrass plant response rating (surinam grass; [1]): 0
B. signalgrass plant response rating (surinam grass; Postemergence, Rate 250 g/ha, scale 0 to 10, 0 no effect, 10 complete control): 0
Plant response rating, B. signalgrass (surinam grass; [7]): 0
Plant response rating, B. signalgrass (surinam grass; [2]): 0
B. signalgrass plant response rating (surinam grass; [8]): 0
B. signalgrass plant response rating (surinam grass; [3]): 0
B. signalgrass plant response rating (surinam grass; [4]): 0
B. signalgrass plant response rating (surinam grass; [5]): 0
Wild oats plant response rating (wild oat; [1]): 0
Plant response rating, Wild oats (wild oat; [7]): 0
Plant response rating, Wild oats (wild oat; [2]): 0
Wild oats plant response rating (wild oat; [8]): 0
Wild oats plant response rating (wild oat; [9]): 0
Wild oats plant response rating (wild oat; [5]): 0
Soybean plant response rating (soybean; [1]): 1
Plant response rating, Soybean (soybean; [7]): 2
Plant response rating, Soybean (soybean; [2]): 0
Soybean plant response rating (soybean; [8]): 0
Soybean plant response rating (soybean; [9]): 0
Soybean plant response rating (soybean; [5]): 0
Velvetleaf plant response rating (velvetleaf; [1]): 0
Plant response rating, Velvetleaf (velvetleaf; [7]): 0
Plant response rating, Velvetleaf (velvetleaf; [2]): 0
Velvetleaf plant response rating (velvetleaf; [8]): 0
Velvetleaf plant response rating (velvetleaf; [9]): 0
Velvetleaf plant response rating (velvetleaf; [5]): 0
Morningglory plant response rating (morningglory; [1]): 0
Plant response rating, Morningglory (morningglory; [7]): 0
Plant response rating, Morningglory (morningglory; [2]): 0
Morningglory plant response rating (morningglory; [8]): 0
Morningglory plant response rating (morningglory; [9]): 0
Morningglory plant response rating (morningglory; [5]): 0
Giant foxtail plant response rating (giant foxtail; [1]): 0
Plant response rating, Giant foxtail (giant foxtail; [7]): 0
Plant response rating, Giant foxtail (giant foxtail; [2]): 0
Giant foxtail plant response rating (giant foxtail; [8]): 0
Giant foxtail plant response rating (giant foxtail; [9]): 0
Giant foxtail plant response rating (giant foxtail; [5]): 0
Rape plant response rating (rape; [1]): 0
Plant response rating, Rape (rape; [7]): 0
Plant response rating, Rape (rape; [2]): 0
Rape plant response rating (rape; [8]): 0
Rape plant response rating (rape; [9]): 0
Rape plant response rating (rape; [5]): 0
Wheat plant response rating (wheat; [1]): 0
Plant response rating, Wheat (wheat; [7]): 0
Plant response rating, Wheat (wheat; [2]): 0
Wheat plant response rating (wheat; [8]): 0
Wheat plant response rating (wheat; [9]): 0
Wheat plant response rating (wheat; [5]): 0
Sugarbeets plant response rating (sugar beet; [1]): 0
Plant response rating, Sugarbeets (sugar beet; [7]): 0
Plant response rating, Sugarbeets (sugar beet; [2]): 0
Sugarbeets plant response rating (sugar beet; [8]): 0
Sugarbeets plant response rating (sugar beet; [9]): 0
Sugarbeets plant response rating (sugar beet; [5]): 0
Corn plant response rating (corn; [1]): 0
Corn plant response rating (corn; [6]): 0
Plant response rating, Corn (corn; [7]): 0
Plant response rating, Corn (corn; [2]): 0
Corn plant response rating (corn; [8]): 0
Corn plant response rating (corn; [9]): 0
Corn plant response rating (corn; [5]): 0
Nutsedge plant response rating (purple nutsedge; [1]): 0
Plant response rating, Nutsedge (purple nutsedge; [7]): 0
Plant response rating, Nutsedge (purple nutsedge; [2]): 0
Nutsedge plant response rating (purple nutsedge; [8]): 0
Nutsedge plant response rating (purple nutsedge; [9]): 0
Nutsedge plant response rating (purple nutsedge; [5]): 0
